According to patent US20030190671A1, “Use of metabolic phenotyping in individualized treatment with amonafide” (McGill University, priority 2001, published 2003):
Where two headings read alike, the source gives them in different places. Marks after values point to notes of the source that are not given here.

How the values were obtained:
[1] = Felder et al.; cited from earlier work
CYP2D6 = conditions: cited from earlier work
CYP1A2 = target: T1, CYP1A2 (Homo sapiens, UniProt P05177); conditions: in vitro; cited from earlier work
T1 sequence (P05177 1-516): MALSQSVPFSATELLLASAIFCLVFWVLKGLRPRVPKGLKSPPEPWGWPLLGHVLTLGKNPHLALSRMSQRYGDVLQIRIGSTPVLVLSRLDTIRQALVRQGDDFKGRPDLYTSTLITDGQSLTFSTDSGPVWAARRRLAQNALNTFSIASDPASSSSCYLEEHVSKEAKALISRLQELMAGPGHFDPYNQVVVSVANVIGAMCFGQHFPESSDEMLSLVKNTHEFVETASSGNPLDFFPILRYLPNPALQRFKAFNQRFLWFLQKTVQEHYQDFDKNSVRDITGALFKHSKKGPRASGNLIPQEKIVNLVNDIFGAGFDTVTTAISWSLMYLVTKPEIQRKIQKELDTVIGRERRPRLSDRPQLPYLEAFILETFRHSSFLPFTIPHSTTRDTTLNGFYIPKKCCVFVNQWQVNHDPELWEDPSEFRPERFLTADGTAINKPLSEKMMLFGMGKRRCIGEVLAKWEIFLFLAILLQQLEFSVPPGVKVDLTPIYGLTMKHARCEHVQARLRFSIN

[2] = cited from earlier work
Caffeine-Ab = assay: Competitive antigen ELISA, antibody specificity of caffeine-Ab; assay type: binding, rabbit; conditions: hypothesized ideal antibody specificity; 0 = no inhibition or no higher than 40% at 5×10^−3 M
Experimental: (§1) Competitive Antigen ELISA
(§2) BSA, antibodies, Tween™ 20 and horse radish peroxidase are added to buffers and water just prior to use. Urine samples are usually collected four hours after drinking a cup of coffee (instant or brewed with approximately 100 mg of caffeine per cup) and stored at −20° C. as 1-mL aliquots in 1.5-mL microtubes. For the ELISA, the urine samples are diluted with isotonic sodium phosphate buffer, pH 7.5 (310 mosM) to give concentrations of caffeine, 1.7-DMX and 1,7-DMU no higher than 3×10^−6 M in the microtiter plate wells. Wells of the ELISA plate are washed with a Nunc-Immuno wash 12 washer. Sixteen milliliters of a solution of 6.6 μg ml^−1 of isolated IgG antibodies is prepared in a 100 mM sodium carbonate buffer, pH 9.6, and 150 μL of this solution is pipetted in each well of a microtiter plate using a eight channel pipet (Brinkmann Transferpette™-8 50-200 μL) and 200 μL Flex tips from Brinkmann). After coating the wells with antibodies at 4° C. for 20 hours, the wells are washed 3 times with the isotonic sodium phosphate buffer containing 0.05% Tween™ 20 (IPBT) and properly drained by inverting the plate and absorbing the liquid on to a piece of paper towel. Thirty milliliters of a solution of a IPBT solution containing 1% BSA is prepared and 150 μL of this solution is pipetted in each well using a eight channel pipet (Brinkmann Transferpet-te™-8 50-200 μL) and 200 μL yellow tips (Sarstedt yellow tips for P200 Gilson Pipetman). After 3 hours at room temperature, the wells are washed 3 times with IPBT solution and drained. Samples of 400 μL for determination of caffeine, 1,7-DMX and 1,7-DMU are prepared in 1.5-mL microtubes using Sarstedt yellow tips and a P200 Gilson Pipetman. Then, 200 μL of each sample are pipetted in duplicate in a Falcon 96-well microtest tissue culture plate according to the pattern shown in FIG. 23, using Sarstedt yellow tips and a P200 Gilson Pipetman. Using an eight channel pipet (Brinkmann Transferpette™-8 50-200 μL) and changing the tips of the eight channel pipet (200 μL Flex tips from Brinkmann) at each row, 150 μL of samples are transferred in the corresponding wells of a 96-well ELISA microtiter plate coated with antibodies. After the addition of the samples, the microtiter plates are covered and left standing at room temperature for 2 h. While the plate is left standing the substrate buffer without the hydrogen peroxide and o-phenylenediamine hydrochloride is prepared (25 mM citric acid and 50 mM sodium phosphate dibasic buffer, pH 5.0). The microtiter plate is washed 3 times with the IPBT solution and 3 times with a 0.05% Tween 20 solution and drained. Then, 50 […] of hydrogen peroxide and 40 mg of o-phenylenediamine are added to the substrate buffer. One hundred fifty microliters (150 μL) of the substrate buffer solution is then added to each well using a eight channel pipet (Brinkmann Transferpette™-8 50-200 μL) and 200 μL Flex tips (Brinkmann). The microtiter plate is covered and shaken for 25-30 min at room temperature and the enzymatic reaction is stopped by adding 50 μL/well of a 2.5 N HCl solution using an eight channel pipet (Brinkmann Transferpette™-8 50-200 μL) and 200 μL Flex tips (Brinkmann).

AAMU-Ab = assay: Competitive antigen ELISA, cross-reactivity of AAMU-Ab; assay type: binding, rabbit; conditions: for % Cross-Reaction AAMU-Ab: competitive antigen ELISA, 0 = absence of inhibition or inhibition no higher than 40% at the highest concentration tested (5×10^−3 M)
Experimental: as §1
(§3) Buffers and water without additives are filtered through millipore filters and kept for 1 week. BSA, antibodies, Tween™ 20 and horse radish peroxidase conjugates are added to these buffers and water just prior to use. Urine samples are usually collected 4 hours after drinking a cup of coffee (instant or brewed with approximately 100 mg of caffeine per cup) and stored at −80° C. The urine samples are diluted 10 times with sodium phosphate buffer (620 mosm, pH 7.50) and are subsequently diluted with water to give concentrations of AAMU and 1X no higher than 3×10^−6 M in the ELISA. All the pipettings are done with an eight-channel pipette, except those of the antibody and sample solutions. Starting with the last well, 100 μL of a carbonate buffer (100 mM, pH 9.6) containing 2.5 μg mL-1 antibodies are added to each well. After 90 min. at room temperature, the wells are washed three times with 100 mL of TPB: isotonic sodium phosphate buffer (310 mosm, pH 7.50) containing 0.05% Tween™ 20.
(§4) After the initial wash, unoccupied sites are blocked by incubation for 90 min. at room temperature with 100 μL TBP containing 3% BSA. The wells are washed four times with 100 […] TPB. […] The microplate is gently shaken with an orbital shaker at room temperature for 3-4 hours. The wells are washed three times with 100 μL TPB containing 1% BSA and three times with water containing 0.05% Tween™ 20. To the washed plate is added 150 μL of a substrate buffer composed of citric acid (25 mM) and sodium phosphate dibasic buffer (50 mM, pH 5.0) containing 0.06% hydrogen peroxide and 0.04% o-phenylenediamine hydrochloride.
as §3, with “were” for “are”, “They were” for “The urine samples are”, “mL^−1” for “mL-1”, “was pipetted.” for “are added to each well.”, “μL” for “mL”
(§5) After the initial wash, unoccupied sites were blocked by incubation for 90 min. at room temperature with 100 μL TBP containing 3% BSA. The wells were washed four times with 100 μL TPB. […] The microplate was gently shaken with an orbital shaker at room temperature for 3-4 hours. The wells were washed three times with 100 μL with TPB containing 1% BSA and three times with water containing 0.05% Tween™ 20. To the washed plate was added 150 μL of a substrate buffer composed of citric acid (25 mM) and sodium phosphate dibasic buffer (50 mM, pH 5.0) containing 0.06% hydrogen peroxide and 0.04% o-phenylenediamine hydrochloride. After 20 min. at room temperature with shaking, the reaction was stopped with 50 μL of 2.5 N HCl.
(§6) The cross reactivities of AAMU-Ab and 1X-Ab were tested using a wide variety of caffeine metabolites and structural analogs (Table 2 below).

1,7-DMU-Ab = assay: Competitive antigen ELISA, antibody specificity of 1,7-DMU-Ab; assay type: binding, rabbit; conditions: hypothesized ideal antibody specificity; 0 = no inhibition or no higher than 40% at 5×10^−3 M
Experimental: as §1, §2

1X-Ab = assay: Competitive antigen ELISA, cross-reactivity of 1X-Ab; assay type: binding, rabbit; conditions: competitive antigen ELISA; 0 = absence of inhibition or inhibition no higher than 40% at the highest concentration tested (5×10^−3 M)
Experimental: as §1, §3, §4
as §3, with “were” for “are”, “They were” for “The urine samples are”, “mL^−1” for “mL-1”, “was pipetted.” for “are added to each well.”, “μL” for “mL”
as §5, §6

1,7-DMX-Ab = assay: Competitive antigen ELISA, antibody specificity of 1,7-DMX-Ab; assay type: binding, rabbit; conditions: hypothesized ideal antibody specificity; 0 = no inhibition or no higher than 40% at 5×10^−3 M
Experimental: as §1, §2

| SMILES | % Cross-reaction Caffeine-Ab (Caffeine-Ab) [%] | % Cross-Reaction AAMU-Ab (AAMU-Ab) | % Cross-reaction 1,7-DMU-Ab (1,7-DMU-Ab) [%] | % Cross-Reaction 1X-Ab (1X-Ab) [%] | % Cross-reaction 1,7-DMX-Ab (1,7-DMX-Ab) [%] | also measured |
| --- | --- | --- | --- | --- | --- | --- |
| C[N+](C)([O-])CCN1C(=O)c2cccc3cc(N)cc(c23)C1=O [N-oxide-amonafide] |  |  |  |  |  | potency relative to the parent drug amonafide [1]: essentially inactive |
| COc1ccc2c(c1)[C@]13CCCC[C@@H]1[C@H](C2)N(C)CC3 [Dextromethorphan] |  |  |  |  |  | mean performance +/−SE (CYP2D6; extensive metabolizers (EMs), p<0.05 vs PMs): 95+/−0.5%; mean performance +/−SE (CYP2D6; poor metabolizers (PMs), p<0.05 vs EMs): 86+/−6% |
| CC(=O)Nc1cc2c3c(cccc3c1)C(=O)N(CCN(C)C)C2=O [N-acetyl-amonafide] |  |  |  |  |  | effect on amonafide oxidation (CYP1A2) (CYP1A2): inhibition of amonafide oxidation; potency relative to the parent drug amonafide [1]: approximately equipotent to the parent drug |
| Nc1ccc(S(=O)(=O)c2ccc(N)cc2)cc1 [dapsone] |  |  |  |  |  | adverse reactions ([2]; fast acetylators): 17%; adverse reactions ([2]; slow acetylators): 46% |
| CC(=O)Nc1c(N)n(C)c(=O)[nH]c1=O [5-acetamino-6-amino-1-methyluracil] | 0 | 100% | 0 | 0 | 0 | IC50 (AAMU-Ab; read-out: concentration required for 50% inhibition in the competitive antigen ELISA, AAMU-Ab): 1500 nM |
| O=c1[nH]c(=O)c2[nH]cnc2[nH]1 [Xanthine] | 0 | 0^a % | 0 | 0 | 0 |  |
| CC(=O)Nc1c(N)[nH]c(=O)[nH]c1=O [5-Acetamino-6-amino-uracil] | 0 | 0.6% | 0 | 0 | 0 |  |
| Cn1c(=O)c2[nH]cnc2n(C)c1=O [1,3-Dimethyl Xanthine (Theophylline), 1,3-Dimethyl Xanthine] | 0 | 0% | 0 | 0.2 | 0 |  |
| Cn1cnc2c1c(=O)[nH]c(=O)n2C [3,7-Dimethyl Xanthine (Theobromine), 3,7-Dimethyl Xanthine] | 0 | 0% | 0 | 0 | 0 |  |
| Cn1c(=O)[nH]c2[nH]c(=O)[nH]c2c1=O [1-Methyluric acid, 1-methyluric acid] | 0 | 0% | 0 | 11 | 0 |  |
